{"source": "patent US8362000B2", "about": "“Azetidinyl diamides as monoacylglycerol lipase inhibitors” (Janssen Pharmaceutica NV, priority 2009, dated 2013)", "key": {"MGL": {"biological_target": "T1, MGL (Rattus norvegicus, UniProt Q8R431)", "T1 construct": "one g rat brain was homogenized using a Polytron homogenizer; from tissue; host or cells: rat brain homogenate", "T1 sequence (Q8R431 1-303)": "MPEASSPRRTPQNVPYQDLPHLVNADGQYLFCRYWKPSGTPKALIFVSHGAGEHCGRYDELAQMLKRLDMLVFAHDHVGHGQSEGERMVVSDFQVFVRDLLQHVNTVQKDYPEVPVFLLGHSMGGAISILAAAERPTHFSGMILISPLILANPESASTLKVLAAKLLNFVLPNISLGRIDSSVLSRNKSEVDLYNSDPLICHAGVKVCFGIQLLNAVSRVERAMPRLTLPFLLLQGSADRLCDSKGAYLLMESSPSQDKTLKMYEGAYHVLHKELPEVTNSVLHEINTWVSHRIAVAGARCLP", "assay": "2-AG accumulation assay in rat brain homogenate", "assay_type": "biochemical", "conditions": "rat brain homogenate; compound 1 μM; 2-AG accumulation as percent of vehicle; read-out: Rat Brain 2AG % VehCntrl (%) @ 1 μM"}, "mutant MGL": {"biological_target": "T2, mutant MGL (Homo sapiens, UniProt Q99685, L169S/L176S)", "T2 sequence (Q99685 1-303 L169S/L176S)": "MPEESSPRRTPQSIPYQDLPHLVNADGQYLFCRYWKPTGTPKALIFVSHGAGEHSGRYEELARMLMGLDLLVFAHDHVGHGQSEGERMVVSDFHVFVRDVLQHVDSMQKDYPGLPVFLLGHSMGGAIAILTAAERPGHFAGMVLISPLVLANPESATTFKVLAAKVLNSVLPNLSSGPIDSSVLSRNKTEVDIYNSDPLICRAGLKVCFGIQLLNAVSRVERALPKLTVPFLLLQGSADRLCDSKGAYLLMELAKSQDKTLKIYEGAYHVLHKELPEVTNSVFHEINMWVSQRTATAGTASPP", "assay": "MGL ThermoFluor assay - mutant", "assay_type": "binding"}, "[1]": {"biological_target": "T3, purified wild type MGL (wt-MGLL 6H-11-313) (Homo sapiens, UniProt Q99685)", "T3 sequence (Q99685 1-303)": "T2 sequence (Q99685 1-303 L169S/L176S) with S169L, S176L"}, "[2]": {"conditions": "ThermoFluor, compound concentration measured by qNMR, read-out: MGL mutant ThermoFluor qKd (using qNMR conc.)"}, "[3]": {"conditions": "ThermoFluor, compound concentration measured by qNMR, read-out: MGL mutant ThermoFluor qKd (μM) (using qNMR conc.)"}, "[4]": {"conditions": "ThermoFluor concentration-response, read-out: MGL mutant ThermoFluor Kd"}}, "note": "Positions count from the first letter of the chain named. Like-named read-outs stand apart in the source and are kept apart here.", "data": [{"smiles": "COc1ccc(-n2ccc3cc(C(=O)N4CC(N5CCN(C(=O)c6ccc[nH]6)CC5)C4)ccc32)cn1", "note": "[Cpd 1176, 1-(6-Methoxypyridin-3-yl)-5-({3-[4-(1H-pyrrol-2-ylcarbonyl)piperazin-1-yl]azetidin-1-yl}carbonyl)-1H-indole]", "values": [{"measurement": "2-AG accumulation, % of vehicle control at 1 µM", "setting": "MGL", "value": 378, "unit": "%"}, {"measurement": "Kd", "setting": "mutant MGL; [2]", "value": 0.161, "unit": "µM"}, {"measurement": "IC50", "setting": "[1]", "value": 70, "unit": "nM"}]}, {"smiles": "NC(=O)c1cccc(-n2ccc3cc(C(=O)N4CC(N5CCN(C(=O)c6nccs6)CC5)C4)ccc32)c1", "note": "[Cpd 1177]", "values": [{"measurement": "2-AG accumulation, % of vehicle control at 1 µM", "setting": "MGL", "value": 895, "unit": "%"}, {"measurement": "Kd", "setting": "mutant MGL; [3]", "value": 0.088, "unit": "µM"}, {"measurement": "IC50", "setting": "[1]", "value": 63, "unit": "nM"}]}, {"smiles": "O=C(c1ccc2nc(-c3ccc(F)c(F)c3)oc2c1)N1CC(N2CCN(C(=O)c3cscn3)CC2)C1", "note": "[Cpd 1178]", "values": [{"measurement": "2-AG accumulation, % of vehicle control at 1 µM", "setting": "MGL", "value": 292, "unit": "%"}, {"measurement": "Kd", "setting": "mutant MGL; [3]", "value": 0.238, "unit": "µM"}, {"measurement": "IC50", "setting": "[1]", "value": 71, "unit": "nM"}]}, {"smiles": "O=C(c1ccc(-c2nc(-c3ccccc3)c(-c3ccccc3)[nH]2)cc1)N1CC(N2CCN(C(=O)c3nccs3)CC2)C1", "note": "[Cpd 1179]", "values": [{"measurement": "2-AG accumulation, % of vehicle control at 1 µM", "setting": "MGL", "value": 996, "unit": "%"}, {"measurement": "Kd", "setting": "mutant MGL; [4]", "value": 0.005, "unit": "µM"}, {"measurement": "IC50", "setting": "[1]", "value": 73, "unit": "nM"}]}, {"smiles": "Cc1ccc(-n2ccc3cc(C(=O)N4CC(N5CCN(C(=O)c6ccc[nH]6)CC5)C4)ccc32)cn1", "note": "[Cpd 1181, 1-(6-Methylpyridin-3-yl)-5-({3-[4-(1H-pyrrol-2-ylcarbonyl)piperazin-1-yl]azetidin-1-yl}carbonyl)-1H-indole]", "values": [{"measurement": "2-AG accumulation, % of vehicle control at 1 µM", "setting": "MGL", "value": 288, "unit": "%"}, {"measurement": "Kd", "setting": "mutant MGL; [2]", "value": 0.278, "unit": "µM"}, {"measurement": "IC50", "setting": "[1]", "value": 77, "unit": "nM"}]}, {"smiles": "N#Cc1ccccc1-n1ccc2cc(C(=O)N3CC(N4CCN(C(=O)c5cscn5)CC4)C3)ccc21", "note": "[Cpd 1182]", "values": [{"measurement": "2-AG accumulation, % of vehicle control at 1 µM", "setting": "MGL", "value": 547, "unit": "%"}, {"measurement": "Kd", "setting": "mutant MGL; [3]", "value": 0.21, "unit": "µM"}, {"measurement": "IC50", "setting": "[1]", "value": 79, "unit": "nM"}]}, {"smiles": "O=C(c1cc(-c2cccc(F)c2)c2[nH]ccc2c1)N1CC(N2CCN(C(=O)c3nccs3)CC2)C1", "note": "[Cpd 1183]", "values": [{"measurement": "2-AG accumulation, % of vehicle control at 1 µM", "setting": "MGL", "value": 549, "unit": "%"}, {"measurement": "Kd", "setting": "mutant MGL; [3]", "value": 0.067, "unit": "µM"}, {"measurement": "IC50", "setting": "[1]", "value": 85, "unit": "nM"}]}, {"smiles": "Cc1ccc(-n2ccc3cc(C(=O)N4CC(N5CCN(C(=O)C(F)(F)F)CC5)C4)ccc32)nc1", "note": "[Cpd 1184, 1-(5-Methylpyridin-2-yl)-5-({3-[4-(trifluoroacetyl)piperazin-1-yl]azetidin-1-yl}carbonyl)-1H-indole]", "values": [{"measurement": "2-AG accumulation, % of vehicle control at 1 µM", "setting": "MGL", "value": 401, "unit": "%"}, {"measurement": "Kd", "setting": "mutant MGL; [2]", "value": 0.244, "unit": "µM"}, {"measurement": "IC50", "setting": "[1]", "value": 86, "unit": "nM"}]}, {"smiles": "O=C(c1cccc(-c2ccccc2C(F)(F)F)c1)N1CC(N2CCN(C(=O)c3cscn3)CC2)C1", "note": "[Cpd 1185]", "values": [{"measurement": "2-AG accumulation, % of vehicle control at 1 µM", "setting": "MGL", "value": 241, "unit": "%"}, {"measurement": "Kd", "setting": "mutant MGL; [4]", "value": 1.32, "unit": "µM"}, {"measurement": "IC50", "setting": "[1]", "value": 88, "unit": "nM"}]}, {"smiles": "O=C(c1cccc(-c2cccc(C(F)(F)F)c2)c1)N1CC(N2CCN(C(=O)c3cscn3)CC2)C1", "note": "[Cpd 1188]", "values": [{"measurement": "2-AG accumulation, % of vehicle control at 1 µM", "setting": "MGL", "value": 187, "unit": "%"}, {"measurement": "Kd", "setting": "mutant MGL; [4]", "value": 0.855, "unit": "µM"}, {"measurement": "IC50", "setting": "[1]", "value": 94, "unit": "nM"}]}, {"smiles": "O=C(c1nccs1)N1CCN(C2CN(C(=O)c3cccc4oc(-c5ccccc5)nc34)C2)CC1", "note": "[Cpd 1190]", "values": [{"measurement": "2-AG accumulation, % of vehicle control at 1 µM", "setting": "MGL", "value": 126, "unit": "%"}, {"measurement": "Kd", "setting": "mutant MGL; ThermoFluor thermal stability binding assay, read-out: MGL mutant ThermoFluor Kd", "value": 0.008, "unit": "µM"}, {"measurement": "IC50", "setting": "[1]", "value": 99, "unit": "nM"}]}, {"smiles": "O=C(c1nccs1)N1CCN(C2CN(C(=O)c3cc(-c4ccccc4)ccc3Cl)C2)CC1", "note": "[Cpd 1200]", "values": [{"measurement": "2-AG accumulation, % of vehicle control at 1 µM", "setting": "MGL", "value": 231, "unit": "%"}, {"measurement": "Kd", "setting": "mutant MGL; [4]", "value": 0.5, "unit": "µM"}, {"measurement": "IC50", "setting": "[1]", "value": 151, "unit": "nM"}]}, {"smiles": "O=C(c1ccc2c(ccn2-c2ncccn2)c1)N1CC(N2CCN(C(=O)c3cscn3)CC2)C1", "note": "[Cpd 1201, 1-Pyrimidin-2-yl-5-({3-[4-(1,3-thiazol-4-ylcarbonyl)piperazin-1-yl]azetidin-1-yl}carbonyl)-1H-indole]", "values": [{"measurement": "2-AG accumulation, % of vehicle control at 1 µM", "setting": "MGL", "value": 475, "unit": "%"}, {"measurement": "Kd", "setting": "mutant MGL; [4]", "value": 0.179, "unit": "µM"}, {"measurement": "IC50", "setting": "[1]", "value": 151, "unit": "nM"}]}, {"smiles": "O=C(c1nccs1)N1CCN(C2CN(C(=O)c3cc(-c4ccccc4)ccc3F)C2)CC1", "note": "[Cpd 1208]", "values": [{"measurement": "2-AG accumulation, % of vehicle control at 1 µM", "setting": "MGL", "value": 212, "unit": "%"}, {"measurement": "Kd", "setting": "mutant MGL; [4]", "value": 1, "unit": "µM"}, {"measurement": "IC50", "setting": "[1]", "value": 190, "unit": "nM"}]}, {"smiles": "Cc1c(C(=O)N2CC(N3CCN(C(=O)c4nccs4)CC3)C2)cccc1-c1ccccc1", "note": "[Cpd 1234]", "values": [{"measurement": "2-AG accumulation, % of vehicle control at 1 µM", "setting": "MGL", "value": 226, "unit": "%"}, {"measurement": "Kd", "setting": "mutant MGL; [4]", "value": 0.394, "unit": "µM"}, {"measurement": "IC50", "setting": "[1]", "value": 356, "unit": "nM"}]}, {"smiles": "O=C(c1ccc(-c2ccccc2)cc1)N1CCN(C2CN(C(=O)c3ccns3)C2)CC1", "note": "[Cpd 1235, 1-(Biphenyl-4-ylcarbonyl)-4-[1-(isothiazol-5-ylcarbonyl)azetidin-3-yl]piperazine]", "values": [{"measurement": "2-AG accumulation, % of vehicle control at 1 µM", "setting": "MGL", "value": 100, "unit": "%"}, {"measurement": "Kd", "setting": "mutant MGL; [4]", "value": 0.124, "unit": "µM"}, {"measurement": "IC50", "setting": "[1]", "value": 360, "unit": "nM"}]}]}
